The supplement of paper PMC13207355
Where a name gives a salt, the structure may show the parent alone.

How the values were obtained:
Conditions in all cases: exposure time: 72 h
[1] = tested on: E28 (patient-derived glioblastoma stem cells of classical subtype); test: surviving fraction (nuclei count normalised to DMSO); higher = more cells surviving (less toxic)
[2] = tested on: E34 (patient-derived glioblastoma stem cells of proneural subtype); test: as above
[3] = tested on: E13 (patient-derived glioblastoma stem cells of classical subtype); test: as above
[4] = tested on: E21 (patient-derived glioblastoma stem cells of mesenchymal subtype); test: as above
[5] = tested on: E57 (patient-derived glioblastoma stem cells of mesenchymal subtype); test: as above
[6] = tested on: FT3469 (normal neural stem cell line); test: as above
[7] = tested on: E31 (patient-derived glioblastoma stem cells of proneural subtype); test: as above
[8] = tested on: E28; test: phenotypic distance (Euclidean, principal components) from DMSO controls (arbitrary units); higher = stronger morphological change
[9] = tested on: E34; test: as above
[10] = tested on: E13; test: as above
[11] = tested on: E21; test: as above
[12] = tested on: E57; test: as above
[13] = tested on: FT3469; test: as above
[14] = tested on: E31; test: as above
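Throughout, for phenotypic distance (Euclidean, principal components) from DMSO controls: cell Painting imaging in 384-well plates, CellProfiler features reduced to at least 20 principal components, Euclidean distance versus same-plate DMSO vehicle wells (0.1% v/v), median over six images per well.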
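Throughout, for surviving fraction (nuclei count normalised to DMSO): nuclei counted by high-content imaging of Hoechst-stained cells in laminin-coated 384-well plates, relative to 0.1% DMSO vehicle wells, with staurosporine as cell-death control.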

CC[C@]1(O)C[C@@H]2CN(CCc3c([nH]c4ccccc34)[C@@](C(=O)OC)(c3cc4c(cc3OC)N(C)[C@H]3[C@@](O)(C(=O)OC)[C@H](OC(C)=O)[C@]5(CC)C=CCN6CC[C@]43[C@@H]65)C2)C1 [Vinblastine sulfate]
Conditions	phenotypic distance	surviving fraction
[1], 4.1 nM	–	0.39
[1], 12.3 nM	–	0.297
[1], 37 nM	–	0.291
[1], 111.1 nM	–	0.236
[1], 333.3 nM	–	0.269
[1], 1000 nM	–	0.218
[1], 3000 nM	–	0.204
[2], 4.1 nM	–	0.338
[2], 12.3 nM	–	0.282
[2], 37 nM	–	0.405
[2], 111.1 nM	–	0.322
[2], 333.3 nM	–	0.375
[2], 1000 nM	–	0.226
[2], 3000 nM	–	0.281
[3], 4.1 nM	–	0.22
[3], 12.3 nM	–	0.177
[3], 37 nM	–	0.175
[3], 111.1 nM	–	0.159
[3], 333.3 nM	–	0.171
[3], 1000 nM	–	0.162
[3], 3000 nM	–	0.194
[4], 4.1 nM	–	0.0927
[4], 12.3 nM	–	0.0948
[4], 37 nM	–	0.0937
[4], 111.1 nM	–	0.08
[4], 333.3 nM	–	0.0642
[4], 1000 nM	–	0.0421
[4], 3000 nM	–	0.0326
[5], 4.1 nM	–	0.0751
[5], 12.3 nM	–	0.0815
[5], 37 nM	–	0.0676
[5], 111.1 nM	–	0.0629
[5], 333.3 nM	–	0.057
[5], 1000 nM	–	0.0602
[5], 3000 nM	–	0.057
[6], 4.1 nM	–	0.427
[6], 12.3 nM	–	0.416
[6], 37 nM	–	0.414
[6], 111.1 nM	–	0.334
[6], 333.3 nM	–	0.372
[6], 1000 nM	–	0.388
[6], 3000 nM	–	0.353
[7], 4.1 nM	–	0.0459
[7], 12.3 nM	–	0.0237
[7], 37 nM	–	0.0459
[7], 111.1 nM	–	0.0325
[7], 333.3 nM	–	0.0444
[7], 1000 nM	–	0.0237
[7], 3000 nM	–	0.0163
[8], 4.1 nM	3.12	–
[8], 12.3 nM	3.85	–
[8], 37 nM	4.99	–
[8], 111.1 nM	4.47	–
[8], 333.3 nM	5.63	–
[8], 1000 nM	6.15	–
[8], 3000 nM	6.57	–
[9], 4.1 nM	7.02	–
[9], 12.3 nM	7.36	–
[9], 37 nM	6.67	–
[9], 111.1 nM	7.53	–
[9], 333.3 nM	8.9	–
[9], 1000 nM	8.95	–
[9], 3000 nM	8.01	–
[10], 4.1 nM	7.96	–
[10], 12.3 nM	7.11	–
[10], 37 nM	8.76	–
[10], 111.1 nM	7.57	–
[10], 333.3 nM	9.22	–
[10], 1000 nM	8.93	–
[10], 3000 nM	9.73	–
[11], 4.1 nM	9.17	–
[11], 12.3 nM	9.98	–
[11], 37 nM	11.1	–
[11], 111.1 nM	9.54	–
[11], 333.3 nM	8.35	–
[11], 1000 nM	8.21	–
[11], 3000 nM	11	–
[12], 4.1 nM	5.33	–
[12], 12.3 nM	5.47	–
[12], 37 nM	6.45	–
[12], 111.1 nM	5.46	–
[12], 333.3 nM	5.55	–
[12], 1000 nM	5.53	–
[12], 3000 nM	6.15	–
[13], 4.1 nM	3.93	–
[13], 12.3 nM	4.58	–
[13], 37 nM	4.48	–
[13], 111.1 nM	5.12	–
[13], 333.3 nM	6.19	–
[13], 1000 nM	5.04	–
[13], 3000 nM	5.6	–
[14], 4.1 nM	6.42	–
[14], 12.3 nM	12.9	–
[14], 37 nM	11.4	–
[14], 111.1 nM	10.7	–
[14], 333.3 nM	14.5	–
[14], 1000 nM	10.1	–
[14], 3000 nM	9.92	–

CC(=O)CC(c1ccc([N+](=O)[O-])cc1)c1c(O)c2ccccc2oc1=O (stereo unspecified) [Acenocoumarol]
Conditions	phenotypic distance	surviving fraction
[1], 4.1 nM	–	0.905
[1], 12.3 nM	–	0.999
[1], 37 nM	–	0.918
[1], 111.1 nM	–	0.967
[1], 333.3 nM	–	1.06
[1], 1000 nM	–	0.92
[1], 3000 nM	–	0.901
[2], 4.1 nM	–	0.771
[2], 12.3 nM	–	1.01
[2], 37 nM	–	1.04
[2], 111.1 nM	–	1.06
[2], 333.3 nM	–	0.935
[2], 1000 nM	–	0.918
[2], 3000 nM	–	0.892
[3], 4.1 nM	–	0.91
[3], 12.3 nM	–	1.04
[3], 37 nM	–	1.05
[3], 111.1 nM	–	1.03
[3], 333.3 nM	–	0.873
[3], 1000 nM	–	0.931
[3], 3000 nM	–	0.767
[4], 4.1 nM	–	0.926
[4], 12.3 nM	–	1.09
[4], 37 nM	–	0.897
[4], 111.1 nM	–	0.931
[4], 333.3 nM	–	0.865
[4], 1000 nM	–	0.954
[4], 3000 nM	–	0.852
[5], 4.1 nM	–	1.08
[5], 12.3 nM	–	1.09
[5], 37 nM	–	1.02
[5], 111.1 nM	–	1.07
[5], 333.3 nM	–	1.03
[5], 1000 nM	–	0.983
[5], 3000 nM	–	1.02
[6], 4.1 nM	–	1.01
[6], 12.3 nM	–	1.07
[6], 37 nM	–	0.881
[6], 111.1 nM	–	1.12
[6], 333.3 nM	–	0.823
[6], 1000 nM	–	0.849
[6], 3000 nM	–	0.771
[7], 4.1 nM	–	0.989
[7], 12.3 nM	–	0.923
[7], 37 nM	–	0.848
[7], 111.1 nM	–	0.934
[7], 333.3 nM	–	1.03
[7], 1000 nM	–	0.955
[7], 3000 nM	–	0.809
[8], 4.1 nM	1.02	–
[8], 12.3 nM	0.39	–
[8], 37 nM	0.547	–
[8], 111.1 nM	0.548	–
[8], 333.3 nM	0.562	–
[8], 1000 nM	1.03	–
[8], 3000 nM	0.857	–
[9], 4.1 nM	1.2	–
[9], 12.3 nM	0.513	–
[9], 37 nM	1.59	–
[9], 111.1 nM	0.677	–
[9], 333.3 nM	0.562	–
[9], 1000 nM	0.954	–
[9], 3000 nM	0.563	–
[10], 4.1 nM	0.426	–
[10], 12.3 nM	0.665	–
[10], 37 nM	2.8	–
[10], 111.1 nM	0.663	–
[10], 333.3 nM	0.594	–
[10], 1000 nM	0.586	–
[10], 3000 nM	0.934	–
[11], 4.1 nM	1.01	–
[11], 12.3 nM	0.655	–
[11], 37 nM	0.963	–
[11], 111.1 nM	0.772	–
[11], 333.3 nM	0.946	–
[11], 1000 nM	0.684	–
[11], 3000 nM	1.11	–
[12], 4.1 nM	0.94	–
[12], 12.3 nM	1.02	–
[12], 37 nM	1.11	–
[12], 111.1 nM	1.36	–
[12], 333.3 nM	0.492	–
[12], 1000 nM	0.718	–
[12], 3000 nM	0.744	–
[13], 4.1 nM	1.4	–
[13], 12.3 nM	0.712	–
[13], 37 nM	1.02	–
[13], 111.1 nM	0.751	–
[13], 333.3 nM	0.862	–
[13], 1000 nM	0.691	–
[13], 3000 nM	0.764	–
[14], 4.1 nM	0.829	–
[14], 12.3 nM	0.483	–
[14], 37 nM	1.07	–
[14], 111.1 nM	0.701	–
[14], 333.3 nM	0.894	–
[14], 1000 nM	0.819	–
[14], 3000 nM	1.06	–
